The results in this text go back to patent publication US20230133958A1, “COMPOUNDS USEFUL IN MODULATING EGFR AND PI3K” (Mekanistic Therapeutics LLC, priority 2021, published 2023).

What all share (assay type): cell-based
One assay deals with RPMI-8226. Briefly: NCI COMPARE panel (SRB growth inhibition), RPMI-8226. The settings on record: Homo sapiens; Leukemia, RPMI-8226, 48 h. The procedure: (§1) The human tumor cell lines of the cancer screening panel are grown in RPMI 1640 medium containing 5% fetal bovine serum and 2 mM L-glutamine. For a typical screening experiment, cells are inoculated into 96 well microtiter plates in 100 µL at plating densities ranging from 5,000 to 40,000 cells/well depending on the doubling time of individual cell lines. After cell inoculation, the microtiter plates are incubated at 37° C., 5% CO2, 95% air and 100% relative humidity for 24 h prior to addition of experimental drugs.
(§2) After 24 h, two plates of each cell line are fixed in situ with TCA, to represent a measurement of the cell population for each cell line at the time of drug addition (Tz). Experimental drugs are solubilized in dimethyl sulfoxide at 400-fold the desired final maximum test concentration and stored frozen prior to use. […]
(§3) Following drug addition, the plates are incubated for an additional 48 h at 37° C., 5 % CO2, 95% air, and 100% relative humidity. […] Bound stain is subsequently solubilized with 10 mM trizma base, and the absorbance is read on an automated plate reader at a wavelength of 515 nm. […] Using the seven absorbance measurements [time zero, (Tz), control growth, (C), and test growth in the presence of drug at the five concentration levels (Ti)], the percentage growth is calculated at each of the drug concentrations levels. Percentage growth inhibition is calculated as: […]

The subject of another assay is SK-OV3. Briefly: NCI COMPARE panel (SRB growth inhibition), SK-OV3. The settings on record: Homo sapiens, SK-OV-3; Ovarian Cancer, SK-OV3, 48 h. The procedure: as §1, §2, §3
Another assay has as its system EKVX. In words: NCI COMPARE panel (SRB growth inhibition), EKVX. As to conditions: Homo sapiens, Non-Small Cell Lung Cancer, 48 h. Here is the method: as §1, §2, §3
The next assay concerns HCC-2998. In words: NCI COMPARE panel (SRB growth inhibition), HCC-2998. The settings on record: Homo sapiens; Colon Cancer, HCC-2998, 48 h. The procedure:
as §1, §2, §3

Another assay has as its system NCI/ADR-RES. In words: NCI COMPARE panel (SRB growth inhibition), NCI/ADR-RES. As to conditions: Homo sapiens, Ovarian Cancer, 48 h. Here is the method: as §1, §2, §3
In another assay the test system is TK-10. In words: NCI COMPARE panel (SRB growth inhibition), TK-10. The settings on record: Homo sapiens; Renal Cancer, TK-10, 48 h. Here is the method:
as §1, §2, §3

The subject of the next assay is A498. Briefly: NCI COMPARE panel (SRB growth inhibition), A498. As to conditions: Homo sapiens; Renal Cancer, A498, 48 h. The procedure: as §1, §2, §3
Another assay has as its system SW-620. Briefly: NCI COMPARE panel (SRB growth inhibition), SW-620. As to conditions: Homo sapiens; Colon Cancer, SW-620, 48 h. The procedure:
as §1, §2, §3

The next assay concerns K-562. Briefly: NCI COMPARE panel (SRB growth inhibition), K-562. The settings on record: Homo sapiens, K562; Leukemia, K-562, 48 h. The procedure:
as §1, §2, §3

A further assay concerns DU-145. Briefly: NCI COMPARE panel (SRB growth inhibition), DU-145. As to conditions: Homo sapiens; Prostate Cancer, DU-145, 48 h. The procedure: as §1, §2, §3

On to `CS(=O)(=O)Nc1cc(-c2ccc3ncc(C#N)c(Nc4cccc(Cl)c4F)c3c2)cnc1Cl` [Compound 10, N-[2-chloro-5-[4-(3-chloro-2-fluoro-anilino)-3-cyano-6-quinolyl]-3-pyridyl]methanesulfonamide], for which the GI50 (commonly the concentration giving 50% growth inhibition) in the assay with RPMI-8226 is at most 75 nM; in the assay on SK-OV3, above 250 nM; with EKVX, above 250 nM; in the assay with HCC-2998 it was above 250 nM; in the assay on NCI/ADR-RES it was above 250 nM; in the assay with TK-10, 75 to 125 nM. Besides, the GI50 is at most 75 nM with A498, at most 75 nM in the assay with SW-620, 75 to 125 nM in the assay on K-562 and 125 to 250 nM in the assay with DU-145.

As to `CS(=O)(=O)Nc1cc(-c2ccc3ncnc(Nc4cccc(Cl)c4F)c3c2)cnc1Cl` [Compound 6, N-[2-chloro-5-[4-(3-chloro-2-fluoro-anilino)quinazolin-6-yl]-3-pyridyl] methanesulfonamide], the GI50 in the assay on RPMI-8226 was 125 to 250 nM; in the assay on SK-OV3, 75 to 125 nM; with EKVX, 75 to 125 nM; in the assay on HCC-2998 it was 125 to 250 nM; in the assay on NCI/ADR-RES it was above 250 nM; in the assay with TK-10, at most 75 nM. Moreover, the GI50 in the assay on A498 was at most 75 nM; in the assay with SW-620, above 250 nM; with K-562, above 250 nM; with DU-145, 125 to 250 nM.
